In patent publication US10159685B2, “Vascular calcification” (Cambridge Enterprise Limited, priority 2016, dated 2018):

Columns and labels:
[1] = test system: bovine vascular smooth muscle cells (bVSMCs); assay type: cell-based; conditions: at the concentrations tested (0.5 to 100 μM), 7 days
Procedure, shortened: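 Bovine VSMCs grown 1 day in M199/20% FCS, then exposed to inhibitors at 0.5–100 μM in M199 + 5% FBS for 7 days, with medium ± inhibitor renewed every 2–3 days. Viability and proliferation read by MTT dehydrogenase activity. DMSO vehicle matched at ≤0.1%.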

[2] = test system: bovine vascular smooth muscle cells (bVSMCs); assay: o-Cresolphthalein Ca2+ assay, bVSMC GAD calcification model (Examples 4 and 5); assay type: cell-based
[3] = test system: bovine vascular smooth muscle cells (bVSMCs); assay: MTT cell viability assay, bVSMCs with or without GAD medium, 7 or 9 days (Example 5); assay type: cell-based
Experimental: As above, cells were treated either with medium only (“no-additions”; NA)+/−inhibitors, or with the GAD-medium+/−inhibitors. […] Additionally, an MTT assay was performed as a measure of cell viability/proliferation. Bovine VSMCs were seeded in 96 well plates and cultured in M199/20% FCS for 1 day. Then, the cells were incubated with inhibitor concentrations of 10 μM, 1 μM and 0.1 μM (in M199 medium+5% FBS). […] Then, the MTT assay was performed.

[4] = human, in vivo
[5] = cited from earlier work

For `CN(C)c1ccc(O)c2c1C[C@H]1C[C@H]3[C@H](N(C)C)C(O)=C(C(N)=O)C(=O)[C@@]3(O)C(O)=C1C2=O` [minocycline], the “Toxicity to bVSMCs (MTT assay, in words)” value [1] was “non-toxic”, the inhibition at 1 µM ([2]; Bos taurus, 216 h, bVSMCs, GAD medium, nine days, 1 μM, read-out: Reduction of Ca^2+ deposition compared to no potential inhibitor) was about 38% and the inhibition at 10 µM ([2]; Bos taurus, 216 h, bVSMCs, GAD medium, nine days, 10 μM, read-out: Reduction of Ca^2+ deposition compared to no potential inhibitor) was about 81%. The “Concentration at which calcification is inhibited (as low as)” value ([2]; bVSMC GAD model, Example 5) was 1 µM, the “Ca^2+ concentration found in bVSMCs, mean” value (from here on “Ca^2+ concentration found”) ([2]; nine days, no GAD, 0.1 μM) was 1.484 μg calcium/ml and the “Ca^2+ concentration found” value ([2]; nine days, no GAD, 1 μM) was 1.327 μg calcium/ml. The “Ca^2+ concentration found” value ([2]; nine days, no GAD, 10 μM) was 0.925 μg calcium/ml, the “Ca^2+ concentration found” value ([2]; nine days, with GAD, 0.1 μM) was 26.16 μg calcium/ml and the “Ca^2+ concentration found” value ([2]; nine days, with GAD, 1 μM) was 21.35 μg calcium/ml. For the same molecule, the “Ca^2+ concentration found” value ([2]; nine days, with GAD, 10 μM) was 3.74 μg calcium/ml, the “Ca^2+ concentration found” value ([2]; seven days, no GAD, 0.1 μM) was 0.654 μg calcium/ml and the “Ca^2+ concentration found” value ([2]; seven days, no GAD, 1 μM) was 0.595 μg calcium/ml. For the same molecule, the “Ca^2+ concentration found” value ([2]; seven days, no GAD, 10 μM) was 0.523 μg calcium/ml, the “Ca^2+ concentration found” value ([2]; seven days, with GAD, 0.1 μM) was 1.79 μg calcium/ml and the “Ca^2+ concentration found” value ([2]; seven days, with GAD, 1 μM) was 2 μg calcium/ml. For the same molecule, the “Ca^2+ concentration found” value ([2]; seven days, with GAD, 10 μM) was 2.38 μg calcium/ml, the “Cell viability (%) mean” value ([3]; nine days, no GAD, 1 μM) was 96.64% and the “Cell viability (%) mean” value ([3]; nine days, no GAD, 10 μM) was 105.1%. The “Cell viability (%) mean” value ([3]; nine days, with GAD, 0.1 μM) was 74.53%, the “Cell viability (%) mean” value ([3]; nine days, with GAD, 1 μM) was 72.42% and the “Cell viability (%) mean” value ([3]; nine days, with GAD, 10 μM) was 105.89%. For the same molecule, the “Drop off in formazan production (MTT) in the GAD-treatment group” value ([3]; nine days, with GAD, 10 μM) was “not observed”, the “Cell viability (%) mean” value ([3]; seven days, no GAD, 0.1 μM) was 94.56% and the “Cell viability (%) mean” value ([3]; seven days, no GAD, 1 μM) was 91.09%. For the same molecule, the “Cell viability (%) mean” value ([3]; seven days, no GAD, 10 μM) was 95.49%, the “Cell viability (%) mean” value ([3]; seven days, with GAD, 1 μM) was 96.84% and the “Cell viability (%) mean” value ([3]; seven days, with GAD, 10 μM) was 102.07%. The “dosage needed to reach the concentration of 0.46 micrograms/mL” value [4] was “approximately 20 mg”, the “maximum concentration (Cmax) in a patient's bloodstream” value ([5]; 50 mg oral dose) was 0.65 micrograms/mL and the “half-life in the body” value ([5]; in vivo) was “approximately 12 hours”.
